Measurements taken from patent publication US8124788B2, “Spirocyclic cyclohexane compounds with analgesic activity” (Gruenenthal GmbH, priority 2006, dated 2012).
Structures can show the parent of a compound that is named as a salt.

Columns and labels:
Serotonin reuptake = molecular target: T1, Serotonin reuptake (Rattus norvegicus, UniProt P31652); assay: Inhibition of serotonin (5HT) reuptake in rat brain synaptosomes; type: biochemical
T1 construct: synaptosomes are freshly isolated from areas of the rat brain; from tissue
T1 sequence (P31652 whole entry): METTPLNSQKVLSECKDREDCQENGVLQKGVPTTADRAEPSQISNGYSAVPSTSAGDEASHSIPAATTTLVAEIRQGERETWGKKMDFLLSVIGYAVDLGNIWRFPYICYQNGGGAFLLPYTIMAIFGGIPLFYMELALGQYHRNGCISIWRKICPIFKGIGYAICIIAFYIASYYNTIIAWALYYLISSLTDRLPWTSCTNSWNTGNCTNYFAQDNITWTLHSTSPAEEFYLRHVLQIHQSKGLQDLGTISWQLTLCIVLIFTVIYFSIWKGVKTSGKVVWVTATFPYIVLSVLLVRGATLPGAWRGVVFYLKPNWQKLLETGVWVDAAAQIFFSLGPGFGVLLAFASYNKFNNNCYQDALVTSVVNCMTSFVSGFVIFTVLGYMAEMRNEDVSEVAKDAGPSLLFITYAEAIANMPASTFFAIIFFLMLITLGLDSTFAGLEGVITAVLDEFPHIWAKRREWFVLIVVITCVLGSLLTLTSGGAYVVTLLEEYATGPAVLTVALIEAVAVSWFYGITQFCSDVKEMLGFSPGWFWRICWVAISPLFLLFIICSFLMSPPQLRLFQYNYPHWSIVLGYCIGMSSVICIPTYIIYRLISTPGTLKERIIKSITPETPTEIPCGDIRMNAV
Description: (§1) In order to be able to carry out these in vitro studies, synaptosomes are freshly isolated from areas of the rat brain. In each case a so-called “P2” fraction prepared in accordance with the instruction of Gray and Whittaker (E. G. Gray and V. P. Whittaker (1962) J. Anat. 76, 79-88) is prepared. For the NA uptake, these vesicular particles are isolated from the hypothalamus of male rat brains.
(§2) A detailed description of the method can be found in the literature (M. Ch. Frink, H.-H. Hennies, W. Englberger, M. Haurand and B. Wilffert (1996) Arzneim.-Forsch./Drug Res. 46 (III), 11, 1029-1036).

[1] = system: phenylquinone-induced writhing in mice; assay: Phenylquinone writhing; type: in vivo; conditions: 10 mg/kg intravenously, male NMRI mice
Description: The analgesic activity was investigated in the phenylquinone-induced writhing in mice (modified in accordance with I. C. Hendershot und J. Forsaith (1959) J. Pharmacol. Exp. Ther. 125, 237-240), Male NMRI mice weighing from 25 to 30 g were used for this. Groups of 10 animals per substance dose received 0.3 ml/mouse of a 0.02% strength aqueous solution of phenylquinone (phenylbenzoquinone, Sigma, Deisenhofen; preparation of the solution with the addition of 5% ethanol and storage in a water bath at 45° C.) administered intraperitoneally 10 minutes after intravenous administration of the test substances. The animals were placed individually in observation cages. The number of pain-induced stretching movements (so-called writhing reactions=straightening of the body with stretching of the rear extremities) was counted by means of a push-button counter 5 to 20 minutes after the administration of phenylquinone. Animals which receive only 5% strength Cremophor solution were also run as a control. All the substances were tested in the standard dosage of 10 mg/kg. The percentage inhibition (% inhibition) of the writhing reaction by a substance was calculated according to the following formula: […]

human μ opiate receptor = molecular target: T2, human μ opiate receptor (Homo sapiens, UniProt P35372); assay: Affinity for the human μ opiate receptor ([3H]-naloxone displacement, CHO-K1 membrane preparation, SPA); type: binding; conditions: for μ opioid receptor [1 μM], % inhibition / inhibition at 1 µM: 1 μM test substance, displacement of [3H]-naloxone; for inhibition at 1 µM: read-out: μ opioid receptor [1 μM], % inhibition; for Ki: Cheng-Prusoff conversion from IC50, read-out: μ opioid receptor, Ki
T2 construct: purchased PerkinElmer Life Sciences, Zaventem, Belgium RB-HOM; host or cells: CHO-K1 cells (recombinant expression)
T2 sequence (P35372 whole entry): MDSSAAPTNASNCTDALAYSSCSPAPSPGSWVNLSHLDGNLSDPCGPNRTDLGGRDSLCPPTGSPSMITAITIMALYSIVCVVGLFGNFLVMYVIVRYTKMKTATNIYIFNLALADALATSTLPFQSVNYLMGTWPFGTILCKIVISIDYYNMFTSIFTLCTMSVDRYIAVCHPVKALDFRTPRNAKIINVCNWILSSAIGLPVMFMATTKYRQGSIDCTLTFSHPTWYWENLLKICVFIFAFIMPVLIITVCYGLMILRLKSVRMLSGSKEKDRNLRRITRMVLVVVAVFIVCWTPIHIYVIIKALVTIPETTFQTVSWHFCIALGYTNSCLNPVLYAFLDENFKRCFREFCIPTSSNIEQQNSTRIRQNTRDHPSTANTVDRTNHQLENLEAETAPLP
Method in brief: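 CHO-K1 membranes expressing human μ receptor (15-40 μg protein/250 μl) were incubated 90 min at room temperature with 1 nmol/l [³H]-naloxone and WGA-SPA beads in 50 mmol/l Tris-HCl with 0.06% BSA; 100 μmol/l naloxone defined nonspecific binding. Percent displacement measured at 1 μmol/l; IC50 converted to Ki via Cheng-Prusoff.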

Noradrenaline reuptake = molecular target: T3, Noradrenaline reuptake (Rattus norvegicus, UniProt Q63380); assay: Inhibition of noradrenaline (NA) reuptake in rat brain synaptosomes; type: biochemical; conditions: synaptosomes from rat hypothalamus
T3 construct: synaptosomes are freshly isolated from areas of the rat brain; from tissue; host or cells: P2 synaptosome fraction from the hypothalamus of male rat brains
T3 sequence (Q63380 1-617): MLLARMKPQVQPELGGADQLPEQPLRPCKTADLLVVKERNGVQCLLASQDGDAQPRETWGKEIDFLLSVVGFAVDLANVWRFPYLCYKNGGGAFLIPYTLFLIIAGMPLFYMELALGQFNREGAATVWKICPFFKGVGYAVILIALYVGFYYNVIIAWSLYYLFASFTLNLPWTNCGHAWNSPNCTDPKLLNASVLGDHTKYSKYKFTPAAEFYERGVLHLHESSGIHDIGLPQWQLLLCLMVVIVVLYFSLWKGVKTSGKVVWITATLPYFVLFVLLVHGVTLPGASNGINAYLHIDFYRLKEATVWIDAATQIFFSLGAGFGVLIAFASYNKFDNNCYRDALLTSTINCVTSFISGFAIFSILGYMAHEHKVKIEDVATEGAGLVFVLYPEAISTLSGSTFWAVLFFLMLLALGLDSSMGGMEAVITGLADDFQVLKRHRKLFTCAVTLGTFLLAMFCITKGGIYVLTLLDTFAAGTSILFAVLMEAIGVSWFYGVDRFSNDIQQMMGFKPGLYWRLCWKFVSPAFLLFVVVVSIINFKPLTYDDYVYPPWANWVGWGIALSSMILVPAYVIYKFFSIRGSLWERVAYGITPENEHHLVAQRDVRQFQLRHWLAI
Description: as §1, §2

Compound	melting point	Serotonin reuptake, % inhibition [10 μM] (Serotonin reuptake)	% inhibition of the writhing reaction (dosage in mg/kg intravenously) [1]	μ opioid receptor [1 μM], % inhibition (human μ opiate receptor)	inhibition at 10 µM (Serotonin reuptake)	inhibition at 10 µM (Noradrenaline reuptake)	inhibition at 1 µM (human μ opiate receptor)	Ki (human μ opiate receptor)	Noradrenaline reuptake, % inhibition [10 μM] (Noradrenaline reuptake)
CN(C)C(CCc1ccccc1)C1CCC2(CC1)NCCc1c2[nH]c2ccccc12 (stereo not shown) (as salt: citrate) [Compound 20, 1,1-[3-(Dimethylamino-(phenylethyl)-methyl)-pentamethylene]-3,4-dihydro-1H-2,9-diazafluorene Citrate]	130 to 135 °C								
CN(C)C(c1ccc(F)cc1)C1CCC2(CC1)NCCc1c2[nH]c2ccccc12 (stereo not shown) [Compound 17, 1,1-[3-(Dimethylamino-(4-fluorophenyl)methyl)-pentamethylene]-3,4-dihydro-1H-2,9-diazafluorene]		83%	52 (10) %	46%					
CN(C)C(CCc1ccccc1)C1CCC2(CC1)NCCc1c2[nH]c2ccccc12 (stereo not shown) [Compound 20, 1,1-[3-(Dimethylamino-(phenylethyl)-methyl)-pentamethylene]-3,4-dihydro-1H-2,9-diazafluorene Citrate]			45 (10) %		84%	91%	97%	34 nM	
CN(C)C(c1cccs1)C1CCC2(CC1)NCCc1c2[nH]c2ccccc12 (stereo not shown) [Compound 21, 1,1-[3-(Dimethylamino-(thiophen-2-yl)-methyl)-pentamethylene]-3,4-dihydro-1H-2,9-diazafluorene]		72%		62%					50%
CN(C)C(c1ccc(Cl)cc1)C1CCC2(CC1)NCCc1c2[nH]c2ccccc12 (stereo not shown) [Compound 22, 1,1-[3-(4-Chlorophenyl-(dimethylamino)-methyl)-pentamethylene]-3,4-dihydro-1H-2,9-diazafluorene]		76%		33%					
CN(C)C(c1ccc(F)cc1)C1CCC2(CC1)OCCc1c2[nH]c2ccccc12 (stereo not shown) [Compound 25, 1,1-[3-(Dimethylamino-(4-fluorophenyl)-methyl)-pentamethylene]-1,3,4,9-tetrahydro-pyrano[3,4-b]indole]					68%		86%	350 nM	
CN(C)C(c1cccc(F)c1)C1CCC2(CC1)OCCc1c2[nH]c2ccccc12 (stereo not shown) [Compound 26, 1,1-[3-(Dimethylamino-(3-fluorophenyl)-methyl)-pentamethylene]-1,3,4,9-tetrahydro-pyrano[3,4-b]indole Citrate]					59%	49%	94%	33 nM	
CN(C)C(c1ccccc1)C1CCC2(CC1)OCCc1c2[nH]c2ccccc12 (stereo not shown) [Compound 27, 1,1-[3-(Dimethylamino-(phenyl)-methyl)-pentamethylene]-1,3,4,9-tetrahydropyrano[3,4-b]indole Citrate]			53 (10) %		73%	64%	99%	26 nM	
CN(C)C(CCc1ccccc1)C1CCC2(CC1)OCCc1c2[nH]c2ccccc12 (stereo not shown) [Compound 28, 1,1-[3-(Dimethylamino-(phenylethyl)-methyl)-pentamethylene]-1,3,4,9-tetrahydropyrano[3,4-b]indole]					57%	52%	92%	110 nM	
CN(C)C(c1cccs1)C1CCC2(CC1)OCCc1c2[nH]c2ccccc12 (stereo not shown) [Compound 29, 1,1-[3-(Dimethylamino-(thiophen-2-yl)-methyl)-pentamethylene]-1,3,4,9-tetrahydro-pyrano[3,4-b]indole]			73 (10) %		45%		99%	15 nM	
CN(C)C(c1ccc(Cl)cc1)C1CCC2(CC1)OCCc1c2[nH]c2ccccc12 (stereo not shown) [Compound 30, 1,1-[3-(Dimethylamino-(4-chlorophenyl)-methyl)-pentamethylene]-1,3,4,9-tetrahydro-pyrano[3,4-b]indole]			45 (10) %		56%		84%	170 nM	
CN(C)C(c1ccc(F)cc1)C1CCC2(CC1)OCCc1c2[nH]c2ccc(F)cc12 (stereo not shown) [Compound 35, 6-Fluoro-1,1-[3-(dimethylamino-(4-fluorophenyl)-methyl) -pentamethylene]-1,3,4,9-tetrahydropyrano[3,4-b]indole]					55%	50%	98%	67 nM	
CN(C)C(c1ccccc1)C1CCC2(CC1)OCCc1c2[nH]c2ccc(F)cc12 (stereo not shown) [Compound 37, 6-Fluoro-1,1-[3-(dimethylamino-(phenyl)-methyl)-pentamethylene]-1,3,4,9-tetrahydro-pyrano[3,4-b]indole]					68%		74%	37 nM	
CN(C)C(c1ccc(Cl)cc1)C1CCC2(CC1)OCCc1c2[nH]c2ccc(F)cc12 (stereo not shown) [Compound 38, 6-Fluoro-1,1-[3-(dimethylamino-(4-chlorophenyl)-methyl)-pentamethylene]-1,3,4,9-tetrahydropyrano[3,4-b]indole]					57%	59%	84%	260 nM	
Cc1ccc2[nH]c3c(c2c1)CC(C)OC31CCC(C(c2ccc(F)cc2)N(C)C)CC1 (stereo not shown) [Compound 40, 3,6-Dimethyl-1,1-[3-(dimethylamino-(4-fluorophenyl)-methyl) -pentamethylene]-1,3,4,9-tetrahydropyrano[3,4-b]indole]		47%		68%					
Cc1ccc2[nH]c3c(c2c1)CC(C)OC31CCC(C(c2cccc(F)c2)N(C)C)CC1 (stereo not shown) [Compound 41, 3,6-Dimethyl-1,1-[3-(dimethylamino-(3-fluorophenyl)-methyl) -pentamethylene]-1,3,4,9-tetrahydropyrano[3,4-b]indole]			40 (10) %				88%	300 nM	
Cc1ccc2[nH]c3c(c2c1)CC(C)OC31CCC(C(c2ccccc2)N(C)C)CC1 (stereo not shown) [Compound 42, 3,6-Dimethyl-1,1-[3-(dimethylamino-(phenyl)-methyl)-pentamethylene]-1,3,4,9-tetrahydropyrano[3,4-b]indole Citrate]					64%		101%	29 nM	
Cc1ccc2[nH]c3c(c2c1)CC(C)OC31CCC(C(c2ccc(Cl)cc2)N(C)C)CC1 (stereo not shown) [Compound 44, 3,6-Dimethyl-1,1-[3-(dimethylamino-(4-chlorophenyl)-methyl) -pentamethylene]-1,3,4,9-tetrahydropyrano[3,4-b]indole]			48 (10) %				72%	490 nM	
CC1Cc2c([nH]c3ccc(F)cc23)C2(CCC(C(c3ccc(F)cc3)N(C)C)CC2)O1 (stereo not shown) [Compound 51, 6-Fluoro-3-methyl-1,1-[3-(dimethylamino-(4-fluorophenyl) -methyl)-pentamethylene]-1,3,4,9-tetrahydropyrano[3,4-b]indole]		39%		46%					
CC1Cc2c([nH]c3ccc(F)cc23)C2(CCC(C(c3cccc(F)c3)N(C)C)CC2)O1 (stereo not shown) [Compound 52, 6-Fluoro-3-methyl-1,1-[3-(dimethylamino-(3-fluorophenyl) -methyl)-pentamethylene]-1,3,4,9-tetrahydropyrano[3,4-b]indole]		68%		53%					
CC1Cc2c([nH]c3ccc(F)cc23)C2(CCC(C(c3ccccc3)N(C)C)CC2)O1 (stereo not shown) [Compound 53, 6-Fluoro-3-methyl-1,1-[3-(dimethylamino-(phenyl)-methyl) -pentamethylene]-1,3,4,9-tetrahydropyrano[3,4-b]indole]					60%	47%	97%	82 nM	
CC1Cc2c([nH]c3ccc(F)cc23)C2(CCC(C(CCc3ccccc3)N(C)C)CC2)O1 (stereo not shown) [Compound 54, 6-Fluoro-3-methyl-1,1-[3-(dimethylamino-(phenylethyl)-methyl) -pentamethylene]-1,3,4,9-tetrahydropyrano[3,4-b]indole]		55%		21%					
